Common to all, as to assay type: functional, cell-based
The target of series [1] is T1, Solute carrier organic anion transporter family member 1A2 (Homo sapiens, UniProt P46721).
T1 sequence (P46721 whole entry): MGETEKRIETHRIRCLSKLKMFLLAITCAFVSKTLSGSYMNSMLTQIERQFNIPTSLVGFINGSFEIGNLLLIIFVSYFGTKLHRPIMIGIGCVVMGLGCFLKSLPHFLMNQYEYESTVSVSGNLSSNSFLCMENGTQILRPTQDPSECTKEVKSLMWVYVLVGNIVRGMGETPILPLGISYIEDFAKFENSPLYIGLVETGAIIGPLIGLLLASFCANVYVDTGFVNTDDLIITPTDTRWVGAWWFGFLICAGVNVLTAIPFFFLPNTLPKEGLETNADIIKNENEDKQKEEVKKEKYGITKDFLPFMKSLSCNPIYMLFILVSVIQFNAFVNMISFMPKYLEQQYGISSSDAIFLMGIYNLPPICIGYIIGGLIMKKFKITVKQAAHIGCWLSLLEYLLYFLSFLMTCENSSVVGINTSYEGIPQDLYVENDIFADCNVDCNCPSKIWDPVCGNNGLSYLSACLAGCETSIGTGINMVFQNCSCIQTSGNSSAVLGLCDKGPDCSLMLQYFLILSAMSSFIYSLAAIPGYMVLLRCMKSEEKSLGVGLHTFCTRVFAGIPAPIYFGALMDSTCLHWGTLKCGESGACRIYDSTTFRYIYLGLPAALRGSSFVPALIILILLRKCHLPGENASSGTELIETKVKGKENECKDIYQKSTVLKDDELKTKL
Nature of the series: TP_TRANSPORTER: uptake in OATP-expressing HeLa cells.

In series [2] the target is T2, Solute carrier organic anion transporter family member 1A1 (Rattus norvegicus, UniProt P46720).
T2 sequence (P46720 whole entry): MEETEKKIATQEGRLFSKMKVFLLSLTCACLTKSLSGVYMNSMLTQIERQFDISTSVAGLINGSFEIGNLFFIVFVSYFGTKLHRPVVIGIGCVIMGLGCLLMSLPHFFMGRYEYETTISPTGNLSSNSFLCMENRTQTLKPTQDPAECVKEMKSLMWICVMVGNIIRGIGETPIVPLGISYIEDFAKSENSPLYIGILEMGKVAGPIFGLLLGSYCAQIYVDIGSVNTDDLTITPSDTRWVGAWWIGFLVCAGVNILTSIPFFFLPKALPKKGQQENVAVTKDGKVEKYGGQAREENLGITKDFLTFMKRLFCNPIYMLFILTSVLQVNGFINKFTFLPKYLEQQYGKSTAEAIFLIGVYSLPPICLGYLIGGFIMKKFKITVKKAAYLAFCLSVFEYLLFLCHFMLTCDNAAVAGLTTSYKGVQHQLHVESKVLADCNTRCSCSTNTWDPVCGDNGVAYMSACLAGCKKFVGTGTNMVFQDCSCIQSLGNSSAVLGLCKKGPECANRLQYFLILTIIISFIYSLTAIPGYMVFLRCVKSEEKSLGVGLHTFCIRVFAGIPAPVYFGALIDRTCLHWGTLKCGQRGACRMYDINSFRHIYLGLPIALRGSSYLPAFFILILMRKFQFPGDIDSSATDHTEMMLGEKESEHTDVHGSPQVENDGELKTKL
The series can be described thus: TP_TRANSPORTER: uptake in Oatp1-expressing HeLa cells. Particulars: human.

Series [3] deals with T3, Solute carrier organic anion transporter family member 1A4 (Rattus norvegicus, UniProt O35913).
T3 sequence (O35913 whole entry): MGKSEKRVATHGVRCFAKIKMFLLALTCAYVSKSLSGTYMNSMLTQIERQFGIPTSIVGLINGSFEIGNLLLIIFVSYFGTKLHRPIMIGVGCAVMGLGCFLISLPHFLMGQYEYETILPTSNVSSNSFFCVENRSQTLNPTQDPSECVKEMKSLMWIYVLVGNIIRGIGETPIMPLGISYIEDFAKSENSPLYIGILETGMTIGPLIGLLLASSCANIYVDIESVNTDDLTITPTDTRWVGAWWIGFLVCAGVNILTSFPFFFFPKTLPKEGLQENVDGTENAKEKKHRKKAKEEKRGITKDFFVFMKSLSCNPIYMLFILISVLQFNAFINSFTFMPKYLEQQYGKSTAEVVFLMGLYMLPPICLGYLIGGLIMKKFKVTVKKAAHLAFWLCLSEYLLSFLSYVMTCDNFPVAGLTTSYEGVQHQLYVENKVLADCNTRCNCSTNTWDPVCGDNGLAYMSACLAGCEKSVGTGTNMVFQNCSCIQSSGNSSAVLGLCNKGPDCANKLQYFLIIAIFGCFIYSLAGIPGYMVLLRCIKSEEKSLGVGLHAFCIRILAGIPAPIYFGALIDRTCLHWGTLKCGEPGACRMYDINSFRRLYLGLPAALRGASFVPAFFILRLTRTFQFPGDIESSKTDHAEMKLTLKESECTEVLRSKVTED
The series can be described thus: TP_TRANSPORTER: uptake in Oatp2-expressing HeLa cells. The conditions noted are these: human.

`CCOC(=O)[C@H](CCc1ccccc1)N[C@@H](C)C(=O)N1CCC[C@H]1C(=O)O` [ENALAPRIL]: the Activity result is “is not a substrate [-]” in series [1], “substrate [+]” in series [2] and “is not a substrate [-]” in series [3].

For the origin of these results see ChEMBL document CHEMBL2074475, “Uptake of enalapril and expression of organic anion transporting polypeptide 1 in zonal, isolated rat hepatocytes” (Drug Metab Dispos, 2000).
